Test results: paper PMC2920492 (Journal of medicinal chemistry, 2010)
Each block holds one molecule with its values, some of them ahead of it.

Legend:
global H3K4me2 [1] = conditions: P19 cell line; cited from earlier work
recombinant human LSD1 [2] = molecular target: T1, recombinant human LSD1 (Homo sapiens, UniProt O60341); conditions: 10 μM; cited from earlier work
global H3K4me1 [3] = conditions: HCT116 cells, 48 hr exposure, increasing concentrations; cited from earlier work
global H3K9me2 = conditions: HCT116 cells, 48 hr exposure, increasing concentrations; cited from earlier work
global H3K4me2 [4] = conditions: HCT116 cells, 48 hr exposure, increasing concentrations; cited from earlier work
recombinant human LSD1 [5] = molecular target: T1, recombinant human LSD1; type: biochemical; conditions: read-out: reduction of LSD1 activity (inhibition), 10 μM
[6] = system: HCT116 human colon carcinoma; conditions: compound alone; cited from earlier work
global H3K4me1 [7] = test: Global H3K4me1 levels by quantitative Western blot in Calu-6 cells; type: cell-based, human; conditions: 10 μM
GATA4 = GATA4 mRNA re-expression by qPCR in Calu-6 cells; type: cell-based, human; conditions: 5 and 10 μM, 24 h
global H3K4me2 [8] = test: Global H3K4me2 levels by quantitative Western blot in Calu-6 cells; type: cell-based, human; conditions: 10 μM
SFRP2 = SFRP2 mRNA re-expression by qPCR in Calu-6 cells; type: cell-based, human; conditions: 10 μM, 24 h
[9] = system: recombinant LSD1/CoRest complex; conditions: cited from earlier work

Compound: N[C@@H]1C[C@H]1c1ccccc1 (racemic) [tranylcypromine]
- global levels of H3K4me2 (global H3K4me2 [1]): increase

Compound: C/N=C(\NC)NCCCNCCCNCCCN/C(=N/C)NC.Cl [Compound 1c]
- %LSD1 activity remaining (recombinant human LSD1 [2]): 14.1 (from [ref. 25]) %
- global H3K4me1 (global H3K4me1 [3]): significant global increases
- global H3K9me2 levels (global H3K9me2): not affecting
- global H3K4me2 (global H3K4me2 [4]): significant global increases

- inhibition at 10 µM (recombinant human LSD1 [5]): 82.9%
Compound: Cl.N=C(NCCCNCCCCCCCNCCCNC(=N)NC(=N)NCCC(c1ccccc1)c1ccccc1)NC(=N)NCCC(c1ccccc1)c1ccccc1 [Compound 2d]
- global H3K4me1 (global H3K4me1 [3]): significant global increases
- global H3K9me2 levels (global H3K9me2): not affecting
- effect on tumor cell growth [6]: little effect
- global H3K4me2 (global H3K4me2 [4]): significant global increases

Compound: Cl.Cl.S=C(NCCCNCCCCCCCNCCCNC(=S)NCC(c1ccccc1)c1ccccc1)NCC(c1ccccc1)c1ccccc1 [Compound 25, 1,15-bis-{3-[1-(2,2-diphenylethyl)thioureado]}-4,12-diazapentadecane]
- global H3K4me1 level (global H3K4me1 [7]; 24 h): significant increases
- global H3K4me1 level (global H3K4me1 [7]; 48 h): most dramatic increases
- effect on GATA4 levels (GATA4): did not produce significant increases
- global H3K4me2 level (global H3K4me2 [8]; 24 h): significant increases
- global H3K4me2 level (global H3K4me2 [8]; 48 h): most dramatic increases

Compound: Cl.Cl.S=C(NCCCNCCCCNCCCNC(=S)NCC(c1ccccc1)c1ccccc1)NCC(c1ccccc1)c1ccccc1 [Compound 26, 1,12-bis-{3-[1-(2,2-diphenylethyl)thioureado]}-4,9-diazadodecane]
- global H3K4me1 level (global H3K4me1 [7]; 24 h): significant increase
- global H3K4me1 level (global H3K4me1 [7]; 48 h): increase
- effect on GATA4 levels (GATA4): did not produce significant increases
- global H3K4me2 level (global H3K4me2 [8]; 24 h): decreased
- global H3K4me2 level (global H3K4me2 [8]; 48 h): reduction

Compound: Cl.Cl.S=C(NCCCNCCCNCCCNC(=S)NCC(c1ccccc1)c1ccccc1)NCC(c1ccccc1)c1ccccc1 [Compound 27, 1,11-bis-{3-[1-(2,2-diphenylethyl)thioureado]}-4,8-diazaundecane]
- increase in SFRP2 expression (SFRP2): 4.8 fold
- global H3K4me1 level (global H3K4me1 [7]; 24 h): significant increases
- global H3K4me2 level (global H3K4me2 [8]; 24 h): significant increases

Compound: NNCCc1ccccc1 [phenelzine]
- global levels of H3K4me2 (global H3K4me2 [1]): increase
- nucleosomal demethylation [9]: inactivate
